The numbers were not newly measured in the PKSmart pharmacokinetics tables (Seal et al. 2025), which cites them from elsewhere.

As a reminder, the MRT is the average time that molecules of a dose stay in the body. By Vd is commonly meant the apparent volume that relates the amount in the body to the concentration in plasma or blood. For orientation: clearance means the volume of plasma or blood freed of the substance per unit of time. For orientation: half-life means the time in which the quantity being followed falls by half. Broadly, the fraction unbound is the share of the substance not bound to proteins or other matrix.

This data set can be described thus: Lombardo, Berellini, Obach 2018, Drug Metab Dispos 46:1466, doi 10.1124/dmd.118.082966. The following applies: human; for MRT / Vd / clearance / half-life: in vivo, iv; for fraction unbound: plasma.

Where a SMILES comes first, the peptide text is derived from it. Bridges are numbered along the chain shown (N, C = ends). [ ]: non-standard residue; d: D form. Mpa = O=C(O)CCS

`CC[C@H]1OC(=O)C(C)[C@@H](O[C@H]2C[C@@](C)(OC)[C@@H](O)[C@H](C)O2)[C@H](C)[C@@H](O[C@@H]2O[C@H](C)C[C@H](N(C)C)[C@H]2O)[C@](C)(OC)CC(C)C(=O)C(C)[C@@H](O)[C@]1(C)O` (stereo partly drawn): the MRT was 3.4 h, the Vd is 1.5 L/kg, the clearance is 7.3 mL/min/kg and the half-life is 2.8 h.

As to `OC[C@@H](O)[C@@H](O)[C@H](O)[C@H](O)CO`, the MRT is 3.5 h, the Vd was 0.24 L/kg, the clearance is 1.2 mL/min/kg and the half-life was 4.7 h.

With `CC(C)CC1C(=O)N2CCC[C@H]2[C@]2(O)O[C@@](C)(NC(=O)C3C[C@@H]4c5cccc6[nH]cc(c56)C[C@H]4N(C)C3)C(=O)N12` (stereo partly drawn), the MRT was 5.01 h, the Vd was 4.02 L/kg, the clearance was 12.8 mL/min/kg and the half-life was 8.84 h.

Regarding `C[C@@H](O)C1C(=O)N2C(C(=O)[O-])=C(S[C@H]3CC[S@@+](O)C3)S[C@@H]12` (stereo partly drawn), the MRT was 0.7 h, the Vd was 0.21 L/kg, the clearance is 5.1 mL/min/kg and the half-life was 0.9 h. Besides, the fraction unbound was 0.9.

In the case of `CC(C(=O)O)c1ccc(C(=O)c2ccccc2)s1` (stereo not drawn), the MRT was 2.3 h, the Vd was 0.08 L/kg, the clearance is 0.62 mL/min/kg and the half-life is 2.1 h. Further, the fraction unbound is 0.015.

Take `COc1cccc2c1C(=N)c1c(O)c3c(c(O)c1C2=O)C[C@@](O)(C(=O)CO)C[C@@H]3O[C@H]1C[C@H](N)[C@H](O)[C@H](C)O1`: the MRT was 17.2 h, the Vd is 15.4 L/kg, the clearance is 15 mL/min/kg and the half-life is 13.8 h.

`COc1ccc([C@@H]2Sc3cc(Cl)ccc3N(CCN(C)C)C(=O)C2OC(C)=O)cc1` (stereo partly drawn): the MRT was 12.3 h, the Vd was 9.7 L/kg, the clearance is 13.7 mL/min/kg and the half-life is 10.6 h. Further, the fraction unbound was 0.1.

Turning to `Cc1ccc(O)c([C@H](CCN(C(C)C)C(C)C)c2ccccc2)c1`, the MRT was 3 h, the Vd is 1.5 L/kg, the clearance is 8.4 mL/min/kg and the half-life is 2.4 h.

As to `CC(C)N(CC[C@H](c1ccccc1)c1cc(CO)ccc1O)C(C)C`, the Vd is 2.41 L/kg and the fraction unbound is 0.5.

Regarding `CCC(CC)COC(C(=O)OCCN(C)C)(c1ccccc1)c1ccccc1`, the MRT is 21 h, the Vd was 7.1 L/kg, the clearance was 5.7 mL/min/kg and the half-life was 34 h.

With `CC=CC1=C(C(=O)O)N2C(=O)C(NC(=O)C(N)c3ccc(O)cc3)[C@H]2SC1` (stereo partly drawn), the MRT is 1.2 h, the Vd is 0.21 L/kg, the clearance is 2.9 mL/min/kg and the half-life was 1.2 h.

On to `N/N=c1\[nH]ncc2ccccc12`, for which the MRT was 0.29 h, the Vd was 1.5 L/kg, the clearance was 85 mL/min/kg and the half-life was 1 h. Also, the fraction unbound was 0.12.

Regarding `Cc1c[nH]c2c(O)cc3c(c12)[C@H](CCl)CN3C(=O)c1cc2cc(NC(=O)Nc3ccc4[nH]c(C(=O)N5C[C@@H](CCl)c6c5cc(O)c5[nH]cc(C)c65)cc4c3)ccc2[nH]1`, the MRT was 1.7 h, the Vd was 0.05 L/kg, the clearance is 0.5 mL/min/kg and the half-life is 1.6 h.

On to `CN1Cc2c(N)cccc2C(c2ccccc2)C1` (stereo not drawn), for which the MRT is 4.5 h, the Vd is 6 L/kg, the clearance was 22 mL/min/kg and the half-life was 6.5 h.

Consider `CC[C@@]1(O)CN2CC[C@H]1C[C@@H]2[C@@H](O)c1ccnc2ccc(OC)cc12`, for which the MRT is 9.4 h, the Vd was 6.8 L/kg, the clearance is 12 mL/min/kg and the half-life is 6.7 h. For the same molecule, the fraction unbound was 0.47.

Regarding `COc1ccc(-n2nc(C(N)=O)c3c2C(=O)N(c2ccc(N4CCCCC4=O)cc2)CC3)cc1`, the Vd was 0.3 L/kg, the clearance was 0.8 mL/min/kg and the half-life was 12 h.

Consider `COc1cccc2c1C(=O)c1c(O)c3c(c(O)c1C2=O)C[C@@](O)(C(=O)CO)C[C@@H]3O[C@@H]1C[C@H](N)[C@H](O[C@@H]2CCCCO2)[C@H](C)O1`, for which the MRT was 12.5 h, the Vd is 43.2 L/kg, the clearance is 57.7 mL/min/kg and the half-life is 11.1 h.

As for `C[C@H](CN1CCOCC1)C(C(=O)N1CCCC1)(c1ccccc1)c1ccccc1`, the MRT was 3.88 h, the Vd was 0.47 L/kg, the clearance was 2.19 mL/min/kg and the half-life was 3.18 h.

On to `O=C(O[C@H]1C[N+]2(CCCOc3ccccc3)CCC1CC2)C(O)(c1cccs1)c1cccs1`, for which the mean residence time (MRT) is 1.76 h, the Vd is 4.3 L/kg and the clearance was 48.5 mL/min/kg.

Turning to `N=C(N)NCCCC1NC(=O)CCSSCC(C(N)=O)NC(=O)C2CCCN2C(=O)C(Cc2c[nH]c3ccccc23)NC(=O)C(CC(=O)O)NC(=O)CNC1=O` (stereo not drawn) ([Mpa]RGDWPC-NH2; disulfide 1-7; configuration not given here), the MRT was 2.45 h, the Vd is 0.42 L/kg, the clearance was 2.88 mL/min/kg and the half-life is 2.12 h.

On to `O=C(NC[C@H]1CN(c2ccc(N3CCOCC3=O)cc2)C(=O)O1)c1ccc(Cl)s1`, for which the MRT was 4.9 h, the Vd is 0.7 L/kg, the clearance was 2.4 mL/min/kg and the half-life is 7 h. The fraction unbound was 0.06.

`CC1(C)S[C@@H]2C(NC(=O)C(NC(=O)NC(=N)N)c3ccccc3)C(=O)N2C1C(=O)O` (stereo partly drawn): the MRT was 2.5 h, the Vd was 0.24 L/kg, the clearance was 1.6 mL/min/kg and the half-life was 2.09 h. Further, the fraction unbound is 0.8.

Consider `CCOC(=O)Nc1ccc(NCc2ccc(F)cc2)nc1N`, for which the MRT was 11 h, the Vd was 1.1 L/kg, the clearance is 1.6 mL/min/kg and the half-life was 8.5 h.

In the case of `CC[N+](C)(C)c1cccc([O-])c1`, the MRT is 1.9 h, the Vd was 1.1 L/kg, the clearance was 9.6 mL/min/kg and the half-life was 1.8 h.

`Cc1nc(C#Cc2ccnc(Cl)c2)c(C)n1-c1ccc(F)cc1`: the MRT was 57.4 h, the Vd is 9.7 L/kg, the clearance was 2.8 mL/min/kg and the half-life is 78.9 h. Moreover, the fraction unbound was 0.01.

Take `O=P(O)(O)C(NC1CCCCCC1)P(=O)(O)O`: the MRT was 1.85 h, the Vd is 0.24 L/kg, the clearance was 2.16 mL/min/kg and the half-life was 1.82 h. The fraction unbound is 0.9.

On to `CN(CCC(=O)/C=C/c1ccc(O)cc1)CCc1ccc2c(c1)OCO2`, for which the MRT is 0.05 h, the Vd was 2.13 L/kg, the clearance was 713 mL/min/kg and the half-life is 0.1 h.

On to `CC(c1ccccn1)c1c(CCN(C)C)sc2ccccc12` (stereo not drawn), for which the MRT was 6.8 h, the volume of distribution (Vd) was 1.83 L/kg, the clearance is 5.31 mL/min/kg and the half-life was 9.1 h.

As to `CC[C@H]1CN2CC[C@H]1C[C@@H]2[C@@H](O)c1ccnc2ccc(OC)cc12`, the MRT is 11 h, the Vd is 2.8 L/kg, the clearance is 4.2 mL/min/kg and the half-life was 5.7 h. Besides, the fraction unbound is 0.22.

For the molecule `CC1(C)S[C@@H]2C(/N=C/N3CCCCCC3)C(=O)N2C1C(=O)O` (stereo partly drawn), the MRT is 1 h, the Vd was 0.37 L/kg, the clearance is 6.3 mL/min/kg and the half-life was 1.1 h. Besides, the fraction unbound was 0.9.

For the molecule `C=C1/C(=C\C=C2/CCC[C@]3(C)[C@@H]([C@H](C)CCCC(C)C)CC[C@@H]23)C[C@@H](O)C[C@@H]1O`, the clearance was 0.82 mL/min/kg and the half-life was 48.6 h.

With `COc1ccc(-c2nc3cc(C4=NNC(=O)CC4C)ccc3[nH]2)cc1` (stereo not drawn), the MRT is 2.2 h, the distribution volume (Vd) is 2 L/kg, the half-life is 1.8 h and the fraction unbound was 0.024.
